In US20240336611A1 (Insilico Medicine IP Limited, priority 2021, published 2024):

What was measured:
[1] = Metabolic stability in human liver microsomes; type: in vitro ADME; conditions: LM Clint (intrinsic clearance); 1 μM test compound, 0.5 mg protein/mL microsome, 37° C., up to 60 min
[2] = target: T1, TNIK kinase [amino acid sequence (1-367), Invitrogen] (Homo sapiens, UniProt Q9UKE5); assay: TNIK kinase inhibition assay (Z-lyte FRET-peptide); type: biochemical; conditions: 0.625 nM TNIK kinase, 2 μM Ser/Thr 7 peptide, 64 μM ATP, one hour at room temperature
T1 construct: purchased Invitrogen
T1 sequence (Q9UKE5 1-367): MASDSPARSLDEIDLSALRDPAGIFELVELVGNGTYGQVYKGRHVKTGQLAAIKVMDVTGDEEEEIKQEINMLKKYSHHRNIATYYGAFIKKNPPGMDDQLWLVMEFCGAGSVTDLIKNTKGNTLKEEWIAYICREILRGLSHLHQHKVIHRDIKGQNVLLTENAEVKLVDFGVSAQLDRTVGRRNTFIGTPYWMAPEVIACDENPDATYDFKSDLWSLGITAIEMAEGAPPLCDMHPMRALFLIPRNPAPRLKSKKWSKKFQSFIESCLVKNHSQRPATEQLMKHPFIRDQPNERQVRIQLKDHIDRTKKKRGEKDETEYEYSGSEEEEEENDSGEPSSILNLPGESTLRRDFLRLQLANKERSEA

SMILES | Human Liver Microsome (μM/min/mg) [1] | IC50 [2] [µM]
CC(C)c1noc(-c2ccc(F)cc2)c1-c1nc(C(=O)Nc2ccc(N3CC4CC(C3)N4C)cn2)cs1 [Compound 95, 2-(5-(4-fluorophenyl)-3-isopropylisoxazol-4-yl)-N-(5-(6-methyl-3,6-diazabicyclo[3.1.1]heptan-3-yl)pyridin-2-yl)thiazole-4-carboxamide] | ++ (10-100 μM/min/mg as ++) | 0.001 to 0.012
CC(C)c1onc(-c2ccc(F)cc2)c1-c1nc(C(=O)Nc2ccc(N3CC4CC(C3)N4C)cn2)cs1 [Compound 96, 2-(3-(4-fluorophenyl)-5-isopropylisoxazol-4-yl)-N-(5-(6-methyl-3,6 diazabicyclo[3.1.1]heptan-3-yl)pyridin-2-yl)thiazole-4-carboxamide] | ++ (10-100 μM/min/mg as ++) | 0.001 to 0.012
CC(C)c1noc(-c2ccc(F)cc2)c1-c1nc(C(=O)Nc2ccc(N3CC4CC(C3)N4C)cc2F)cs1 [Compound 97, N-(2-fluoro-4-(6-methyl-3,6-diazabicyclo[3.1.1]heptan-3-yl)phenyl)-2-(5-(4-fluorophenyl)-3-isopropylisoxazol-4-yl)thiazole-4-carboxamide] | ++ (10-100 μM/min/mg as ++) | 0.001 to 0.012
CC(C)c1onc(-c2ccc(F)cc2)c1-c1nc(C(=O)Nc2ccc(N3CC4CC(C3)N4C)cc2F)cs1 [Compound 98, N-(2-fluoro-4-(6-methyl-3,6-diazabicyclo[3.1.1]heptan-3-yl)phenyl)-2-(3-(4-fluorophenyl)-5-isopropylisoxazol-4-yl)thiazole-4-carboxamide] | ++ (10-100 μM/min/mg as ++) | 0.001 to 0.012
CC(C)n1cnc(-c2ccc(F)cc2)c1-c1nc(C(=O)Nc2ccc(N3CCOCC3)cn2)cs1 [Compound 99, 2-(4-(4-fluorophenyl)-1-isopropyl-1H-imidazol-5-yl)-N-(5-morpholinopyridin-2-yl)thiazole-4-carboxamide] | ++ (10-100 μM/min/mg as ++) | 0.001 to 0.012
CC(C)n1cnc(-c2ccc(F)cc2)c1-c1nc(C(=O)Nc2ccc(N3CCOCC3)cc2F)cs1 [Compound 100, N-(2-fluoro-4-morpholinophenyl)-2-(4-(4-fluorophenyl)-1-isopropyl-1H-imidazol-5-yl) thiazole-4-carboxamide] | ++ (10-100 μM/min/mg as ++) | 0.001 to 0.012
CC(C)n1cnc(-c2ccc(F)cc2)c1-c1nc(C(=O)Nc2ccc(C3CN(C)C3)cn2)co1 [Compound 102, 2-(4-(4-fluorophenyl)-1-isopropyl-1H-imidazol-5-yl)-N-(5-(1-methylazetidin-3-yl)pyridin-2-yl)oxazole-4-carboxamide] | ++ (10-100 μM/min/mg as ++) | 0.012 to 0.15
[2H]C([2H])([2H])N1CC(c2ccc(NC(=O)c3csc(-c4c(-c5ccc(F)cc5)ncn4C(C)C)n3)nc2)C1 [Compound 108, 2-[5-(4-fluorophenyl)-3-isopropyl-imidazol-4-yl]-N-[5-[1-(trideuteriomethyl)azetidin-3-yl]-2-pyridyl]thiazole-4-carboxamide] | ++ (10-100 μM/min/mg as ++) | 0.001 to 0.012
COCCN1CC(c2ccc(NC(=O)c3csc(-c4c(-c5ccc(F)cc5)ncn4C(C)C)n3)nc2)C1 [Compound 109, 2-(4-(4-fluorophenyl)-1-isopropyl-1H-imidazol-5-yl)-N-(5-(1-(2-methoxyethyl)azetidin-3-yl)pyridin-2-yl)thiazole-4-carboxamide] | ++ (10-100 μM/min/mg as ++) | 0.001 to 0.012
[2H]C([2H])([2H])N1CC(c2ccc(NC(=O)c3c[nH]c(-c4c(-c5ccc(F)cc5)ncn4C(C)C)n3)c(F)c2)C1 [Compound 114, 2-[5-(4-fluorophenyl)-3-isopropyl-imidazol-4-yl]-N-[2-fluoro-4-[1-(trideuteriomethyl)azetidin-3-yl]phenyl]-1H-imidazole-4-carboxamide] | +++ (1-10 μM/min/mg as +++) | 0.001 to 0.012
[2H]C([2H])([2H])N1CC(c2ccc(NC(=O)c3csc(-c4c(-c5ccc(F)cc5)noc4C(C)C)n3)nc2)C1 [Compound 115, 2-[3-(4-fluorophenyl)-5-isopropyl-isoxazol-4-yl]-N-[5-[1-(trideuteriomethyl)azetidin-3-yl]-2-pyridyl]thiazole-4-carboxamide] | ++ (10-100 μM/min/mg as ++) | 0.001 to 0.012
CC(C)n1cnc(-c2ccc(F)cc2)c1-c1nc(C(=O)Nc2ccc(N3CCP(C)(=O)CC3)cc2F)cs1 [Compound 117, N-(2-fluoro-4-(4-methyl-4-oxido-1,4-azaphosphinan-1-yl)phenyl)-2-(4-(4-fluorophenyl)-1-isopropyl-1H-imidazol-5-yl)thiazole-4-carboxamide] | ++ (10-100 μM/min/mg as ++) | 0.001 to 0.012
[2H]C([2H])([2H])N1CC(c2ccc(NC(=O)c3nc(-c4c(-c5ccc(F)cc5)ncn4C4CCC4)cs3)nc2)C1 [Compound 121, 4-(1-cyclobutyl-4-(4-fluorophenyl)-1H-imidazol-5-yl)-N-(5-(1-(trideuteriomethyl)azetidin-3-yl)pyridin-2-yl)thiazole-2-carboxamide] | ++ (10-100 μM/min/mg as ++) | 0.001 to 0.012
[2H]C([2H])([2H])N1CC(c2ccc(NC(=O)c3nc(-c4c(-c5ccc(F)cc5)ncn4C4CCC4)cs3)c(F)c2)C1 [Compound 122, 4-[3-cyclobutyl-5-(4-fluorophenyl)imidazol-4-yl]-N-[2-fluoro-4-[1-(trideuteriomethyl)azetidin-3-yl]phenyl]thiazole-2-carboxamide] | ++ (10-100 μM/min/mg as ++) | 0.001 to 0.012
[2H]C([2H])([2H])N1CC(c2ccc(NC(=O)c3csc(-c4c(-c5ccc(F)c(Cl)c5)ncn4C(C)C)n3)nc2)C1 [Compound 123, 2-[5-(3-chloro-4-fluoro-phenyl)-3-isopropyl-imidazol-4-yl]-N-[5-[1-(trideuteriomethyl)azetidin-3-yl]-2-pyridyl]thiazole-4-carboxamide] | ++ (10-100 μM/min/mg as ++) | 0.001 to 0.012
[2H]C([2H])([2H])N1CCN(c2ccc(NC(=O)c3c[nH]c(-c4c(-c5ccc(F)cc5)ncn4C(C)C)n3)nc2)CC1 [Compound 124, 2-[5-(4-fluorophenyl)-3-isopropyl-imidazol-4-yl]-N-[5-[4 (trideuteriomethyl)piperazin-1-yl]-2-pyridyl]-1H-imidazole-4-carboxamide] | ++ (10-100 μM/min/mg as ++) | 0.001 to 0.012
[2H]C([2H])([2H])N1CCN(c2ccc(NC(=O)c3c[nH]c(-c4c(-c5ccc(F)cc5)ncn4C([2H])(C)C)n3)nc2)CC1 [Compound 125, 2-[3-(1-deuterio-1-methyl-ethyl)-5-(4-fluorophenyl)imidazol-4-yl]-N-[5-[4-(trideuteriomethyl)piperazin-1-yl]-2-pyridyl]-1H-imidazole-4-carboxamide] | ++ (10-100 μM/min/mg as ++) | 0.001 to 0.012
[2H]C([2H])([2H])N1CCN(c2ccc(NC(=O)c3c[nH]c(-c4c(-c5ccc(F)cc5)ncn4C(C)C)n3)c(F)c2)CC1 [Compound 126, 2-[5-(4-fluorophenyl)-3-isopropyl-imidazol-4-yl]-N-[2-fluoro-4-[4-(trideuteriomethyl)piperazin-1-yl]phenyl]-1H-imidazole-4-carboxamide] | ++ (10-100 μM/min/mg as ++) | 0.001 to 0.012
[2H]C([2H])([2H])N1CCN(c2ccc(NC(=O)c3c[nH]c(-c4c(-c5ccc(F)cc5)ncn4C([2H])(C)C)n3)c(F)c2)CC1 [Compound 127, 2-[3-(1-deuterio-1-methyl-ethyl)-5-(4-fluorophenyl)imidazol-4-yl]-N-[2-fluoro-4-[4-(trideuteriomethyl)piperazin-1-yl]phenyl]-1H-imidazole-4-carboxamide] | ++ (10-100 μM/min/mg as ++) | 0.001 to 0.012
